This passage reports EC50 and Emax results from US11111251B2, “Positive allosteric modulators of the muscarinic acetylcholine receptor M1” (Vanderbilt University, priority 2016, dated 2021).

This assay concerns the target T1, human mAChR M1 (Homo sapiens, UniProt P11229).
T1 sequence (P11229 1-460): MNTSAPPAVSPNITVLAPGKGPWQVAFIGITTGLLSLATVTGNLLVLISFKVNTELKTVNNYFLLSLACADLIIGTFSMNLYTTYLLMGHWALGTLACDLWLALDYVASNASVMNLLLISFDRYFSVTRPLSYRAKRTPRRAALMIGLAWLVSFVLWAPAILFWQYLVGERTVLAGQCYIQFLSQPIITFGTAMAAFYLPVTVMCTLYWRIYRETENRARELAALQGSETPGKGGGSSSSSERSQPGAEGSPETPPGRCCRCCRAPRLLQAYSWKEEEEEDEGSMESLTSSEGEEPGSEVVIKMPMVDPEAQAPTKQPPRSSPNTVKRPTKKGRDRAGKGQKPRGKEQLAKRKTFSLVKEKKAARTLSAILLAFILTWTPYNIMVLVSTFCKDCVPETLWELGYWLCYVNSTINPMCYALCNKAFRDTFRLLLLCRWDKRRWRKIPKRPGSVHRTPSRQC
The assay can be described thus: mAChR M1 cell-based functional assay: calcium mobilization, positive allosteric modulator mode (increase in EC20 acetylcholine response). The note with it: for Emax: read-out: Human M1 Emax (%). In short, it runs like this: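 Calcium-flux assay in CHO-K1 cells stably expressing human M1, loaded with Fluo-4 AM (50 min, 37 °C) and read at 1 Hz. Compound (11-point, 1:3 series) was added at 4 s, EC20 acetylcholine at 144 s and EC80 at 230 s. PAM activity is the concentration-dependent rise in the EC20 response, fitted with a four-parameter logistic.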

Setting [1] is: Table 2, human M1, read-out: Human M1 EC50.
Setting [2] is: Table 1, mAChR M1 cell-based functional assay, PAM mode, species not given, read-out: EC50.

Where two headings read alike, the source gives them in different places. Some results are limits rather than exact numbers.

`CC1CC(NC(=O)c2cc(Cc3ccc(-c4cnn(C)c4)nc3)c3sccc3n2)CC(C)O1` (stereo not shown) [Compound 335, N-(2,6-dimethyltetrahydropyran-4-yl)-7-[[6-(1-methylpyrazol-4-yl)-3-pyridyl]methyl]thieno[3,2-b]pyridine-5-carboxamide]: the EC50 under setting [1] is 0.158 µM. Also, the Emax (Table 2, human M1) stood at 83.6%.

As to `COCC(C)NC(=O)c1cc(Cc2ccc(-c3cncs3)cc2)c2sccc2n1` (stereo not shown) [Compound 406, N-(2-methoxy-1-methyl-ethyl)-7-[(4-thiazol-5-ylphenyl)methyl]thieno[3,2-b]pyridine-5-carboxamide], the EC50 under setting [1] worked out at 5.05 µM. Also, the Emax (Table 2, human M1) was 59.1%. On to `O=C(NC12CC3CC(CC(O)(C3)C1)C2)c1cc(Cc2ccc(C(F)(F)F)nc2)c2sccc2n1` [Compound 95, N-(3-hydroxy-1-adamantyl)-7-[[6-(trifluoromethyl)-3-pyridyl]methyl]thieno[3,2-b]pyridine-5-carboxamide], for which the EC50 under setting [1] was determined as 3.13 µM. The Emax (Table 2, human M1) was found to be 34.2%.

As for `Cc1ccc(Cc2cc(C(=O)N[C@H]3CCC[C@@H]3O)nc3ccsc23)cn1` [Compound 42, N-[(1S,2S)-2-hydroxycyclopentyl]-7-[(6-methyl-3-pyridyl)methyl]thieno[3,2-b]pyridine-5-carboxamide], under setting [2], the EC50 came to 0.36 µM. As to `COCCCNC(=O)c1cc(Cc2ccc(-c3nccs3)cc2)c2sccc2n1` [Compound 372, N-(3-methoxypropyl)-7-[(4-thiazol-2-ylphenyl)methyl]thieno[3,2-b]pyridine-5-carboxamide], the EC50 under setting [1] was determined as 1.88 µM. Also, the maximal effect (Emax) (Table 2, human M1) was determined as 75.3%. For the compound `Cc1csc2c(Cc3ccc(-c4ccn(C)n4)cc3)cc(C(=O)NCC3CCO3)nc12` (stereo not shown) [Compound 310, 3-methyl-7-[[4-(1-methylpyrazol-3-yl)phenyl]methyl]-N-(oxetan-2-ylmethyl)thieno[3,2-b]pyridine-5-carboxamide], the 50% effective concentration (EC50) under setting [1] came out at 0.471 µM. Further, the Emax (Table 2, human M1) was determined as 78.1%. For `CN1CCC(NC(=O)c2cc(Cc3ccc(-c4cscn4)cc3)c3sccc3n2)CC1` [Compound 211, N-(1-methyl-4-piperidyl)-7-[(4-thiazol-4-ylphenyl)methyl]thieno[3,2-b]pyridine-5-carboxamide] the same measures were 1.78 µM and 82.6%. In the case of `Cn1cc(-c2ccc(Cc3cc(C(=O)NC4CCOCC4)nc4ccsc34)cc2)cn1` [Compound 268, 7-[[4-(1-methylpyrazol-4-yl)phenyl]methyl]-N-tetrahydropyran-4-yl-thieno[3,2-b]pyridine-5-carboxamide], the 50% effective concentration (EC50) under setting [1] came out at 0.0595 µM. Also, the Emax (Table 2, human M1) was 70.1%. For `O=C(NC1CCOCC1)c1cc(Cc2c(F)cc(-c3cscn3)cc2F)c2sccc2n1` [Compound 271, 7-[(2,6-difluoro-4-thiazol-4-yl-phenyl)methyl]-N-tetrahydropyran-4-yl-thieno[3,2-b]pyridine-5-carboxamide], in that order: 0.312 µM and 45.5%. Regarding `Cc1ccc(Oc2cc(C(=O)N[C@H]3CCCC[C@@H]3O)nc3ccsc23)cn1` [Compound 21, N-[(1S,2S)-2-hydroxycyclohexyl]-7-[(6-methyl-3-pyridyl)oxy]thieno[3,2-b]pyridine-5-carboxamide], under setting [2], the EC50 amounted to 1.14 µM. As for `Cc1csc2c(Cc3ccc(-c4ccn(C)n4)cc3)cc(C(=O)NC3CC(F)C3)nc12` (stereo not shown) [Compound 308, N-(3-fluorocyclobutyl)-3-methyl-7-[[4-(1-methylpyrazol-3-yl)phenyl]methyl]thieno[3,2-b]pyridine-5-carboxamide], under setting [1], the EC50 was determined as 5.36 µM. The Emax (Table 2, human M1) amounted to 62.1%.

`Cn1ccc2nc(C(=O)NC3CCOCC3)cc(Cc3ccc(-n4cccn4)cc3)c21` [Compound 455, 1-methyl-7-[(4-pyrazol-1-ylphenyl)methyl]-N-tetrahydropyran-4-yl-pyrrolo[3,2-b]pyridine-5-carboxamide]: the EC50 under setting [1] turned out to be 0.136 µM. Further, the Emax (Table 2, human M1) was determined as 75.1%. `Cn1ccc2nc(C(=O)NC3CCOCC3(C)C)cc(Cc3ccc(-c4nccs4)cc3)c21` (stereo not shown) [Compound 485, N-(3,3-dimethyltetrahydropyran-4-yl)-1-methyl-7-[(4-thiazol-2-ylphenyl)methyl]pyrrolo[3,2-b]pyridine-5-carboxamide]: the Emax was determined as 61.6%. Under setting [1], the EC50 stood at 0.662 µM. As for `O=C(N[C@@H]1COCC[C@H]1O)c1cc(Cc2ccc(-n3cccn3)cc2)c2sccc2n1` [Compound 75, N-[(3R,4R)-4-hydroxytetrahydropyran-3-yl]-7-[(4-pyrazol-1-ylphenyl)methyl]thieno[3,2-b]pyridine-5-carboxamide], under setting [1], the EC50 was determined as 0.0221 µM. Further, the Emax (Table 2, human M1) was 90.1%.

`Cn1cc(-c2ccc(Cc3cc(C(=O)NC4CCOCC4(C)C)nc4ccsc34)cn2)cn1` (stereo not shown) [Compound 362, N-(3,3-dimethyltetrahydropyran-4-yl)-7-[[6-(1-methylpyrazol-4-yl)-3-pyridyl]methyl]thieno[3,2-b]pyridine-5-carboxamide]: the EC50 under setting [1] was determined as 0.0849 µM. In addition, the Emax (Table 2, human M1) came to 72.4%. With `Cn1cc(-c2ccc(Cc3cc(C(=O)NCC4CCOCC4)nc4ccsc34)cn2)cn1` [Compound 334, 7-[[6-(1-methylpyrazol-4-yl)-3-pyridyl]methyl]-N-(tetrahydropyran-4-ylmethyl)thieno[3,2-b]pyridine-5-carboxamide], the EC50 under setting [1] was determined as 0.103 µM. For the same compound, the maximal response (Emax) (Table 2, human M1) amounted to 83%. `Cn1ncc2nc(C(=O)N[C@H]3CCCC[C@@H]3O)cc(Cc3ccc(-n4cccn4)cc3)c21` [Compound 498, N-[(1S,2S)-2-hydroxycyclohexyl]-1-methyl-7-[(4-pyrazol-1-ylphenyl)methyl]pyrazolo-[4,3-b]pyridine-5-carboxamide]: the EC50 under setting [1] was 0.428 µM. Moreover, the Emax (Table 2, human M1) was determined as 67.3%. For `Cn1ccc(-c2ccc(Cc3cc(C(=O)N[C@H]4CC[C@@H]4O)nc4ccn(C)c34)cn2)n1` [Compound 513, N-[(1S,2S)-2-hydroxycyclobutyl]-1-methyl-7-[[6-(1-methylpyrazol-3-yl)-3-pyridyl]methyl]pyrrolo[3,2-b]pyridine-5-carboxamide], in that order: 0.712 µM and 77.8%.

For the compound `Cn1ccc(-c2ccc(Cc3cc(C(=O)N[C@H]4CCCC[C@@H]4O)nc4ccsc34)cn2)n1` [Compound 354, N-[(1S,2S)-2-hydroxycyclohexyl]-7-[[6-(1-methylpyrazol-3-yl)-3-pyridyl]methyl]thieno[3,2-b]pyridine-5-carboxamide], the EC50 under setting [1] stood at 0.0148 µM. Moreover, the Emax (Table 2, human M1) stood at 64.2%. Consider `O=C(N[C@H]1CCOC[C@@H]1O)c1cc(Cc2ccc(-c3cscn3)cc2)c2sccc2n1` [Compound 215, N-[(3R,4S)-3-hydroxytetrahydropyran-4-yl]-7-[(4-thiazol-4-ylphenyl)methyl]thieno[3,2-b]pyridine-5-carboxamide], for which, under setting [1], the EC50 came out at 0.0101 µM. Where the note is “Table 2, human M1”, the Emax turned out to be 72.7%. Regarding `Cn1ccc(-c2ccc(Cc3cc(C(=O)NC4CCOCC4)nc4ccsc34)cn2)n1` [Compound 350, 7-[[6-(1-methylpyrazol-3-yl)-3-pyridyl]methyl]-N-tetrahydropyran-4-yl-thieno[3,2-b]pyridine-5-carboxamide], under setting [1], the EC50 was 0.0805 µM. The Emax (Table 2, human M1) was 70.5%.

As for `Cc1ncc(Cc2cc(C(=O)NC3CCOCC3)nc3ccsc23)cn1` [Compound 126, 7-[(2-methylpyrimidin-5-yl)methyl]-N-tetrahydropyran-4-yl-thieno[3,2-b]pyridine-5-carboxamide], the EC50 under setting [1] was greater than 10 µM. Also, the Emax (Table 2, human M1) stood at 27.4%. For the compound `Cc1nn(C)cc1-c1ccc(Cc2cc(C(=O)NC3CN(C(C)(C)C)C3)nc3ccsc23)cc1` [Compound 245, N-(1-tert-butylazetidin-3-yl)-7-[[4-(1,3-dimethylpyrazol-4-yl)phenyl]methyl]thieno[3,2-b]pyridine-5-carboxamide], the EC50 under setting [1] was greater than 10 µM. For the same compound, where the note is “Table 2, human M1”, the Emax was 16.2%. For `Cn1cc(-c2ccc(Cc3cc(C(=O)N[C@H]4CCCCC[C@@H]4O)nc4ccsc34)c(F)c2)cn1` [Compound 54, 7-[[2-fluoro-4-(1-methylpyrazol-4-yl)phenyl]methyl]-N-[(1S,2S)-2-hydroxycycloheptyl]thieno[3,2-b]pyridine-5-carboxamide] the same measures were greater than 10 µM and 53.1%. For `O=C(N[C@@H]1CCCOC1)c1cc(Cc2ccc(-c3cscn3)cc2)c2sccc2n1` [Compound 212, N-[(3R)-tetrahydropyran-3-yl]-7-[(4-thiazol-4-ylphenyl)methyl]thieno[3,2-b]pyridine-5-carboxamide], the EC50 under setting [1] turned out to be 0.858 µM. For the same compound, the Emax (Table 2, human M1) came out at 73.3%. For `CN(C(=O)c1cc(Cc2ccc(-c3cscn3)cc2)c2sccc2n1)C1CCOCC1` [Compound 214, N-methyl-N-tetrahydropyran-4-yl-7-[(4-thiazol-4-ylphenyl)methyl]thieno[3,2-b]pyridine-5-carboxamide], in that order: 5.95 µM and 81.1%.

For the compound `Cc1ccc(C(F)c2cc(C(=O)N[C@@H]3CCCC[C@H]3O)nc3ccsc23)cn1` (stereo partly drawn) [Compound 85, 7-[fluoro-(6-methyl-3-pyridyl)methyl]-N-[(1R,2R)-2-hydroxycyclohexyl]thieno[3,2-b]pyridine-5-carboxamide], under setting [1], the EC50 worked out at 0.0801 µM. Under “Table 2, human M1”, the Emax turned out to be 87.9%.

The EC50 is the concentration that produces a half-maximal response. Usually Emax stands for the maximal effect, on the per cent scale that the assay sets.
